Laboratory results reported in US6309872A, “Polypeptides having glucoamylase activity and nucleic acids encoding same” (Novozymes Biotech, Inc, priority 2000, dated 2001).

Key:
[1] = test system: Aspergillus spp K-27 glucoamylase; conditions: Abe et al., 1990, cited from earlier work
[2] = target: Aspergillus awamori glucoamylase (Aspergillus awamori, UniProt P69327); conditions: Sierks and Svensson, 1993, cited from earlier work
[3] = test system: Trichoderma reesei glucoamylase; conditions: Fagerstrom and Kalkkinen, 1995, cited from earlier work
[4] = target: T1, Thielavia terrestris ATCC 20627 glucoamylase, wild type, recombinant (expressed in Aspergillus oryzae), SEQ ID NO:2 (Thermothielavioides terrestris, UniProt G2QUZ8); test: Catalytic constants of recombinant Thielavia terrestris glucoamylase, maltotriose hydrolysis (glucose oxidase assay); type: biochemical
T1 construct: N-terminus identical to native enzyme
T1 sequence (G2QUZ8 20-638): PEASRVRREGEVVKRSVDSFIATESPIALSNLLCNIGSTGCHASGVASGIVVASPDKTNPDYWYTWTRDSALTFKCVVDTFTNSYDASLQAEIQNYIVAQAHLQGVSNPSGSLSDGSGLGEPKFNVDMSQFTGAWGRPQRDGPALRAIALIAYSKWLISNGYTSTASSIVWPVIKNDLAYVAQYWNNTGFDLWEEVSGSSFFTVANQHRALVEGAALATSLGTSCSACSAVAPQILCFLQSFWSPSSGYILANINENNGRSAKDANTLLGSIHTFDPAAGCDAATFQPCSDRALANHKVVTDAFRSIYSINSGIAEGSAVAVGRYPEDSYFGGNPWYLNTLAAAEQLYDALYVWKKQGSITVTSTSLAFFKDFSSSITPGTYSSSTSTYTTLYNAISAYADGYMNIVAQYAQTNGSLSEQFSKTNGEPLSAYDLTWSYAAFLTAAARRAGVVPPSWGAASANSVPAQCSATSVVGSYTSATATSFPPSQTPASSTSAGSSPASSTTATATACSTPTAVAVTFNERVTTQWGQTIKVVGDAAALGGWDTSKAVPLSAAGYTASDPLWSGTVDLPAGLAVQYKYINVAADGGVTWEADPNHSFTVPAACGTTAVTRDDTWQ
Experimental: The glucose-releasing activity of glucoamylase (on maltooligosaccharide) was measured using a glucose oxidase assay kit (Sigma Chemical Co., St. Louis, Mo.) according to the manufacturer's instructions. […] To obtain the correct glucoamylase activity, glucoamylase samples were subjected to ultrafiltration and the resulting retentate (glucoamylase enriched) and filtrate (containing no glucoamylase) were assayed by the glucose oxidase kit. The background substrate oxidation was then subtracted from the data obtained for the glucoamylase samples. Another glucoamylase activity assay comprised of glucoamylase hydrolysis on maltose and glucose detection by a Glucose GOD-Perid kit (Boehringer Mannheim, Indianapolis, Ind.) according to the manufacturer's instructions. In this assay, 900 µl of 50 mM sodium acetate, pH 4.3, containing 1% maltose, pre-incubated for 5 minutes at 37° C., was mixed with 20 μl of glucoamylase solution in 50 mM sodium acetate pH 4.3. After a 10 minute incubation, 80 μl of 1 M NaOH was added to inactivate glucoamylase and the mixture was chilled on ice to prevent the non-enzymatic, basic hydrolysis of maltose. A 20 μl volume of the solution was then mixed with 200 μl of GOD-Perid solution. After a 30 minute incubation at room temperature, the absorbance at 650 nm was measured. The Prism program (from GraphPad, San Diego, Calif.) was used to calculate Km and Vmax by non-linear regression. The parameter kcat (mole glucose produced per mole glucoamylase per min) was calculated by kcat ={(Vmax +1.01)/0.30}/[enzyme], where the units were 0.001 Abs /minute for Vmax and μM for [enzyme]. The 124 mM^-1 cm^-1 value, calculated from the amount of tyrosine, phenylalanine, and cysteine as deduced from the DNA sequence, was used for the extinction coefficient of Thielavia terrestris glucoamylase at 280 nm.
Then 50 μl of Sigma's GO glucose oxidase assay reagent and 25 μl of H2 O were added and the absorption change was monitored at 490 nm.
The temperature-activity profile was measured in quadruplicate at 4, 22, 30, 37, 50, 60, 70, and 80° C. […] After 30 minutes, 5 μl Thielavia terrestris glucoamylase stock (0.11 mg/ml) was added and the solution was kept at the same temperature. After 20 minutes, the solutions were chilled (in ice-water) and briefly centrifuged (in 0.7-ml microcentrifuge tubes). Then 25 μl of these solutions were subjected to the glucoamylase assay by mixing with 50 μl of glucose oxidase reagent and 25 μl of H2 O as described above.

Aspergillus awamori glucoamylase, sequence (P69327 25-640): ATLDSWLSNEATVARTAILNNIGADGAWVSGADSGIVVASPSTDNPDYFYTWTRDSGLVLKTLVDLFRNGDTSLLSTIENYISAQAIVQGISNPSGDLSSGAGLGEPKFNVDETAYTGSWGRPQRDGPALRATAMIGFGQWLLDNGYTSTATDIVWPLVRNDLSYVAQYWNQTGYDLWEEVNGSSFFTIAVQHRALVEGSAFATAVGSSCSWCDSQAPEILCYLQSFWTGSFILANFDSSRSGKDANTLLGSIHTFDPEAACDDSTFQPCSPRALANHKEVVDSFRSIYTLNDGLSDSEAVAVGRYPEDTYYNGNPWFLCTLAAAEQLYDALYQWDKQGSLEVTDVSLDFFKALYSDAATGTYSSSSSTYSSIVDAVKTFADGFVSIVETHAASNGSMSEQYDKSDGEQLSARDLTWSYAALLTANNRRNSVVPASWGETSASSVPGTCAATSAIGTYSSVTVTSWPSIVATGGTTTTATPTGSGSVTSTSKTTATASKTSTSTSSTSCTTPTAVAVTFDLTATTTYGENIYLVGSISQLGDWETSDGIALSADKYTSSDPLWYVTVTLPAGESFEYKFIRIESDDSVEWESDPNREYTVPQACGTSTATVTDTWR

For OC[C@H]1O[C@H](O[C@H]2[C@H](O)[C@@H](O)[C@@H](O[C@H]3[C@H](O)[C@@H](O)C(O)O[C@@H]3CO)O[C@@H]2CO)[C@H](O)[C@@H](O)[C@@H]1O (stereo partly shown) [maltotriose], the kcat ([1]; maltotriose) is listed as 65 s⁻¹, the Km ([1]; read-out: Km for maltotriose) is listed as 450 µM and the kcat ([2]; maltotriose) is listed as 61.67 s⁻¹. For the same compound, the Km ([2]; read-out: Km for maltotriose) was 730 µM, the kcat ([3]; maltotriose) was 20 s⁻¹ and the Km ([3]; read-out: Km for maltotriose) was 500 µM. For the same compound, the Km ([4]; at pH 4 from 4° C. to 80° C.) was < 1000 µM, the kcat ([4]; at pH 4 from 40° C. to 70° C.) was > 10^5 /min and the kcat ([4]; from pH 3 to 7 at 20° C.) was > 10^5 /min. For the same compound, the Km ([4]; from pH 3 to 11 at 20° C.) was < 1000 µM.
